Literature values, collected in patent US8318452B2, “Solid culture medium for the detection and/or the species discrimination of glycopeptide-resistant enterococci” (priority 2006, dated 2012).

Experiments:
[1] = system: VanC type glycopeptide-resistant enterococci; conditions: Type of glycopeptide resistance VanC
[2] = system: VanB type glycopeptide-resistant enterococci; conditions: Type of glycopeptide resistance VanB

teicoplanin
MIC [1]: 0.5 to 1 mg/L | MIC [2]: 0.5 to 1 mg/L
